Data on nine compounds can be found in patent publication US9938279B2, “Method for treating disease or condition susceptible to amelioration by AMPK activators and compounds of formula which are useful to activate AMP-activated protein kinase (AMPK)” (ENERGENESIS BIOMEDICAL CO., LTD, priority 2013, dated 2018).

Assay [1] relates to AMPK. Description: AMPK activation assay (western blot phospho-AMPK Thr172) in C2C12. The format is cell-based, mouse. The note with it: C2C12 cells, 30 min treatment. On the procedure:
(§1) Effects of compounds on AMPK activation were analyzed in mouse muscle cell C2C12, mouse fibroblast 3T3-L1 and human hepatocyte Hep G2. Those cell lines were cultured in high-glucose Dulbecco's modified Eagle's medium (DMEM) containing 10% fetal bovine serum (FBS), 4 mM L-glutamine, 2 mM sodium pyruvate and 1% penicillin/streptomycin (Invitrogen GibcoBRL, Carlsbad, Calif., USA) at 37° C. under 5% CO2. Cells were plated at 3×10^5 per well (6-well plate). 24 h after plating, cells were treated with indicated compounds for 30 min followed by cell lysis and western blot analysis. Equal amount of protein were separated by SDS-PAGE and then electroblotted on to PVDF membranes. Membranes were blocked with 3% BSA in PBS for 60 min and incubated with anti-phospho-AMPK (Thr172) antibody (1:2,000, Cell signaling), anti-AMPK antibody (1:2,000, Cell signaling), anti-Glut4 antibody (1:1,000, Millipore) or anti-actin antibody (1:5,000; Chemicon International) at 4° C. overnight followed by the corresponding secondary antibody for 1 h at room temperature (RT). Immunoreactive bands were detected by enhanced chemiluminescence (ECL; Pierce, Rockford, Ill., USA) and recorded using Kodakfilm (Rochester, N.Y., USA). The detected signals were scanned and then quantified by using TotalLab Quant software (TotalLab).

Assay [2] deals with AMPK. Description: AMPK activation assay (western blot phospho-AMPK Thr172) in Hep G2. The assay is classed as cell-based, human. The settings on record: Hep G2 cells, 30 min treatment. On the procedure: as §1
(A western blot detects proteins with antibodies after separation by electrophoresis.)

Assay [3] deals with AMPK. Description: AMPK activation assay (western blot phospho-AMPK Thr172) in 3T3-L1. The format is cell-based, mouse. The note with it: 3T3-L1 cells, 30 min treatment. On the procedure:
as §1

As to `Nc1nc(S)c2[nH]cnc2n1` [Example 2-amino-6-mercaptopurine, 2-amino-6-mercaptopurine], the “AMPK activation (% to control) C2C12” value in the assay with AMPK [1] (1 microM) is on record as 118 % to control; in the assay on AMPK [1] (10 microM), 122 % to control; with AMPK [1] (100 microM), 228 % to control; in the assay with AMPK [1] (200 microM), 284 % to control. The “AMPK activation (% to control) Hep G2” value is given as 112 % to control in the assay on AMPK [2] (1 microM), 124 % to control with AMPK [2] (10 microM), 209 % to control with AMPK [2] (100 microM) and 261 % to control in the assay with AMPK [2] (200 microM). Further, the “AMPK activation (% to control) 3T3-L1” value is on record as 105 % to control in the assay on AMPK [3] (1 microM), 119 % to control in the assay with AMPK [3] (10 microM), 251 % to control in the assay on AMPK [3] (100 microM) and 277 % to control in the assay with AMPK [3] (200 microM).
Take `CNc1nc(N)nc2nc[nH]c12` [Example 2-amino-6-methylaminopurine, 2-amino-6-methylaminopurine]: the “AMPK activation (% to control) C2C12” value in the assay on AMPK [1] (1 microM) is 119 % to control; in the assay with AMPK [1] (10 microM) it was 187 % to control; in the assay with AMPK [1] (100 microM) it was 215 % to control; with AMPK [1] (200 microM), 351 % to control. Besides, the “AMPK activation (% to control) Hep G2” value in the assay on AMPK [2] (1 microM) was 114 % to control; in the assay on AMPK [2] (10 microM) it was 139 % to control; with AMPK [2] (100 microM) it was 230 % to control; in the assay on AMPK [2] (200 microM), 348 % to control. The “AMPK activation (% to control) 3T3-L1” value is 109 % to control in the assay with AMPK [3] (1 microM), 135 % to control in the assay on AMPK [3] (10 microM), 220 % to control in the assay on AMPK [3] (100 microM) and 332 % to control in the assay on AMPK [3] (200 microM).
As to `Nc1nc(NCc2ccccc2)nc2nc[nH]c12` [Example 2-benzylamino-6-aminopurine, 2-benzylamino-6-aminopurine], the “AMPK activation (% to control) C2C12” value in the assay with AMPK [1] (1 microM) is 110 % to control; with AMPK [1] (10 microM) it was 128 % to control; with AMPK [1] (100 microM) it was 259 % to control; with AMPK [1] (200 microM) it was 312 % to control. The “AMPK activation (% to control) Hep G2” value in the assay on AMPK [2] (1 microM) is 105 % to control; in the assay on AMPK [2] (10 microM), 116 % to control; in the assay with AMPK [2] (100 microM), 235 % to control; with AMPK [2] (200 microM) it was 364 % to control. The “AMPK activation (% to control) 3T3-L1” value with AMPK [3] (1 microM) was 119 % to control; in the assay with AMPK [3] (10 microM), 147 % to control; with AMPK [3] (100 microM) it was 217 % to control; with AMPK [3] (200 microM), 308 % to control.
As for `Nc1nc(Br)nc2nc[nH]c12` [Example 2-bromoadenine, 2-bromoadenine], the “AMPK activation (% to control) C2C12” value is reported as 116 % to control in the assay with AMPK [1] (1 microM), 172 % to control in the assay with AMPK [1] (10 microM), 263 % to control with AMPK [1] (100 microM) and 349 % to control in the assay on AMPK [1] (200 microM). The “AMPK activation (% to control) Hep G2” value in the assay on AMPK [2] (1 microM) is 113 % to control; in the assay with AMPK [2] (10 microM) it was 190 % to control; in the assay on AMPK [2] (100 microM), 253 % to control; with AMPK [2] (200 microM), 354 % to control. The “AMPK activation (% to control) 3T3-L1” value in the assay on AMPK [3] (1 microM) was 119 % to control; with AMPK [3] (10 microM), 188 % to control; in the assay with AMPK [3] (100 microM), 277 % to control; in the assay on AMPK [3] (200 microM), 361 % to control.
Regarding `O=c1[nH]c(Br)nc2nc[nH]c12` [Example 2-bromohypoxanthine, 2-bromohypoxanthine], the “AMPK activation (% to control) C2C12” value is given as 108 % to control in the assay with AMPK [1] (1 microM), 142 % to control in the assay with AMPK [1] (10 microM), 214 % to control with AMPK [1] (100 microM) and 321 % to control with AMPK [1] (200 microM). Further, the “AMPK activation (% to control) Hep G2” value is on record as 110 % to control in the assay on AMPK [2] (1 microM), 160 % to control in the assay with AMPK [2] (10 microM), 242 % to control in the assay on AMPK [2] (100 microM) and 359 % to control with AMPK [2] (200 microM). In addition, the “AMPK activation (% to control) 3T3-L1” value in the assay with AMPK [3] (1 microM) was 111 % to control; with AMPK [3] (10 microM), 176 % to control; in the assay with AMPK [3] (100 microM) it was 245 % to control; in the assay on AMPK [3] (200 microM) it was 357 % to control.
Consider `Oc1nc(Cl)nc2nc[nH]c12` [Example 2-chloro-6-hydroxypurine, 2-chloro-6-hydroxypurine], for which the “AMPK activation (% to control) C2C12” value in the assay with AMPK [1] (1 microM) is listed as 109 % to control; with AMPK [1] (10 microM) it was 156 % to control; in the assay on AMPK [1] (100 microM), 277 % to control; with AMPK [1] (200 microM) it was 331 % to control. For the same compound, the “AMPK activation (% to control) Hep G2” value with AMPK [2] (1 microM) is 110 % to control; with AMPK [2] (10 microM) it was 163 % to control; in the assay with AMPK [2] (100 microM), 249 % to control; with AMPK [2] (200 microM), 375 % to control. Besides, the “AMPK activation (% to control) 3T3-L1” value is given as 108 % to control with AMPK [3] (1 microM), 145 % to control in the assay with AMPK [3] (10 microM), 243 % to control in the assay with AMPK [3] (100 microM) and 356 % to control with AMPK [3] (200 microM).
`Nc1nc(Cl)nc2nc[nH]c12` [Example 2-chloroadenine, 2-chloroadenine]: the “AMPK activation (% to control) C2C12” value in the assay with AMPK [1] (1 microM) was 110 % to control; in the assay on AMPK [1] (10 microM), 155 % to control; in the assay with AMPK [1] (100 microM), 284 % to control; in the assay on AMPK [1] (200 microM), 326 % to control. For the same compound, the “AMPK activation (% to control) Hep G2” value was 116 % to control in the assay on AMPK [2] (1 microM), 139 % to control in the assay with AMPK [2] (10 microM), 220 % to control in the assay on AMPK [2] (100 microM) and 314 % to control in the assay on AMPK [2] (200 microM). Also, the “AMPK activation (% to control) 3T3-L1” value in the assay with AMPK [3] (1 microM) was 118 % to control; in the assay on AMPK [3] (10 microM) it was 143 % to control; with AMPK [3] (100 microM), 271 % to control; in the assay with AMPK [3] (200 microM) it was 311 % to control.
On to `Nc1nc(F)nc2nc[nH]c12` [Example 2-fluoroadenine, 2-fluoroadenine], for which the “AMPK activation (% to control) C2C12” value with AMPK [1] (1 microM) was 102 % to control; in the assay with AMPK [1] (10 microM) it was 112 % to control; in the assay with AMPK [1] (100 microM), 213 % to control; in the assay on AMPK [1] (200 microM), 303 % to control. Besides, the “AMPK activation (% to control) Hep G2” value with AMPK [2] (1 microM) is reported as 117 % to control; in the assay on AMPK [2] (10 microM) it was 180 % to control; in the assay on AMPK [2] (100 microM), 259 % to control; in the assay with AMPK [2] (200 microM) it was 315 % to control. For the same compound, the “AMPK activation (% to control) 3T3-L1” value with AMPK [3] (1 microM) is 114 % to control; in the assay on AMPK [3] (10 microM), 165 % to control; in the assay on AMPK [3] (100 microM), 291 % to control; with AMPK [3] (200 microM), 323 % to control.
Take `Oc1nc(NCc2ccccc2)c2[nH]cnc2n1` [Example 2-hydroxy-6-benzylaminopurine, 2-hydroxy-6-benzylaminopurine]: the “AMPK activation (% to control) C2C12” value is 108 % to control in the assay on AMPK [1] (1 microM), 135 % to control in the assay on AMPK [1] (10 microM), 244 % to control in the assay on AMPK [1] (100 microM) and 356 % to control in the assay with AMPK [1] (200 microM). Also, the “AMPK activation (% to control) Hep G2” value is given as 109 % to control in the assay with AMPK [2] (1 microM), 137 % to control in the assay with AMPK [2] (10 microM), 261 % to control with AMPK [2] (100 microM) and 338 % to control in the assay on AMPK [2] (200 microM). The “AMPK activation (% to control) 3T3-L1” value in the assay on AMPK [3] (1 microM) was 115 % to control; with AMPK [3] (10 microM) it was 126 % to control; in the assay on AMPK [3] (100 microM), 230 % to control; in the assay with AMPK [3] (200 microM), 309 % to control.
